According to a melting point compilation (Tetko et al.):

melting point [°C]	SMILES
119 to 121	NC(C(=O)O)(c1cccc(C(F)(F)F)c1)C(F)(F)F (configuration not stated)
164 to 166	CC(C)(C)OC(=O)Nc1ccc(Cc2nc(C(=O)O)cs2)cc1
39 to 41	O=C(NCCS(=O)(=O)Cl)OCc1ccccc1
73 to 75	O=C(O)CCCN1CCOC1=O
161 to 163	Ic1ccc(OCc2ccc3ncccc3c2)cc1
141 to 143	O=c1[nH]c2c(s1)CCCC2
200 to 203	COc1cc(CC#N)cc(Br)c1OC(F)F
196 to 198	O=C(O)Cc1csc(NC(=O)c2cccc(O)c2)n1
55 to 57	Cc1cccc(OCCCCC(=O)O)c1
118 to 120	O=C(O)Cc1csc(N2CCCC2=O)n1
270 to 272	N#Cc1nc(N)[nH]c1C#N
170 to 172	CC1(C)C(=O)Nc2ccccc2N1C(=O)CCl
154 to 156	CC(C)N(C)S(=O)(=O)c1ccc(Cl)c(C(=O)O)c1
162 to 165	Cc1c(C=O)c(=O)n(-c2ccccc2)n1C
183 to 185	CCCOc1ccc(-c2nc(C(=O)O)cs2)cc1
169 to 171	O=C(O)CCC1NC(=O)NC1=O (configuration not stated)
203 to 205	O=C(O)c1ccc(CN(Cc2ccccc2)S(=O)(=O)c2ccc(Cl)cc2)cc1
262 to 264	O=c1[nH]cnc2cc(Br)ccc12
120 to 122	Cc1cccc2nc(CCl)cc(=O)n12
238 to 240	COc1ccc(NS(=O)(=O)c2ccc(C=CC(=O)O)cc2)cc1
204 to 206	O=C(Nc1ccccc1F)Nc1cccc2c1CCCN2
206 to 208	CNC(=CC(=O)c1ccccc1C)NC
183 to 185	CCn1c(C)nc2cc(C(=O)NN)ccc21
102 to 104	N#Cc1cccc(N2CCOC2=O)c1
70 to 72	CCO/C=C(\C#N)c1nc(C)cs1

melting point [°C]	SMILES
33 to 42	O=S(=O)(Cl)c1ccc2c(c1)CCC2
247 to 249	O=c1[nH][nH]c2cccc(Cl)c12
164 to 166	O=C(O)C1CCC(=O)N(Cc2ccccc2)C1c1ccccc1 (configuration not stated)
131 to 133	CCOC(=O)/C(C#N)=C\Nc1cc(OC)ccc1OC
75 to 77	CC(=O)NCc1cccc(Br)c1
217 to 219	O=C(O)CN1Cc2ccccc2C1=O
261 to 263	Cc1cc(F)cc2[nH]c(C(=O)O)cc12
158 to 160	COc1ccc(NC(=O)c2c(N)sc3c2CCCC3)cc1
119 to 121	NC(=S)Nc1cccc(Oc2ccccc2)c1
284 to 286	O=c1[nH]cnc2ccc([N+](=O)[O-])cc12
114 to 116	N#Cc1cccnc1-n1cccn1
191 to 193	Cc1nc(N)cc(Cl)n1
166 to 168	CNc1cc(C#N)c2ccccc2n1
299 to 301	O=C(O)c1csc(-c2nnc[nH]2)n1
129 to 131	O=C1CCCc2ccccc2N1
134 to 136	NS(=O)(=O)c1ccnc(Cl)c1
94 to 96	CC(Cl)C(=O)Nc1cccc(I)c1 (configuration not stated)
241 to 243	Cc1c(C(=O)O)sc2nccn12
44 to 46	Clc1cccc(-c2noc(Cl)n2)c1
147 to 149	Cc1csc(-c2no[nH]c2=N)n1
119 to 121	CCN(CC)S(=O)(=O)c1ccc(-c2ccc(C=O)o2)cc1
73 to 75	Cc1ccc(C(N)c2cccc(S(C)(=O)=O)c2)cc1 (configuration not stated)
220 to 224	N=C(N)NCCC(=O)O
129 to 131	NC(=NO)c1ccc(Br)o1
136 to 139	CC(Cl)C(=O)Nc1ccc(F)c(F)c1F (configuration not stated)

melting point [°C]	SMILES
182 to 184	Nc1ccc(-c2ncc3n2CCCC3)cc1
56 to 58	CC(Cc1ccccc1Cl)C(=O)O (configuration not stated)
164 to 166	Cc1[nH]cnc1CC#N
60 to 62	Cc1nc(Cl)c2c(-c3ccccc3)c(C)sc2n1
189 to 191	O=C(NC(c1nn[nH]n1)C1CC1)c1ccccc1 (configuration not stated)
125 to 127	O=C(O)CSCC(=O)Nc1ccc(F)cc1
222 to 224	O=C(Nc1ccc(O)cc1)c1cccc([N+](=O)[O-])c1
74 to 76	CC(=O)c1cc([N+](=O)[O-])c(Cl)s1
107 to 109	Nc1cccc(S(=O)(=O)Nc2cccc(Cl)c2)c1
259 to 261	Nc1nnc(-c2ccc([N+](=O)[O-])o2)o1
156 to 158	O=C(O)CCc1cscn1
163 to 165	Cn1c(=O)n(C)c2cc(Br)ccc21
193 to 195	O=C(O)c1cc(C2CC2)[nH]n1
146 to 148	Cc1ccc(-n2nc(C)c(CC(=O)O)c2C)cc1Cl
99 to 101	COc1cc(Br)cc(OC)c1O
169 to 171	O=C(Nc1ccc(Br)cn1)C1CCCNC1 (configuration not stated)
194 to 196	O=C(O)c1cc([N+](=O)[O-])ccc1N1CCCCC1
236 to 238	Cn1cc(S(=O)(=O)N2CCCCC2)cc1C(=O)O
134 to 136	CC(C)(C)OC(=O)N1CCC(C(=O)O)C1 (configuration not stated)
139 to 141	O=Cc1c[nH]nc1-c1cccc(Cl)c1
194 to 196	Nc1cc(F)c(Oc2ccc(F)cc2)cc1C(=O)O
110 to 112	Nc1ccc(Sc2ccccn2)c(Cl)c1
256 to 258	NC(=O)c1c[nH]nn1
154 to 156	COc1cc(C#N)ccc1OCC(=O)O
125 to 127	CC(C)(C)OC(=O)NC(C)(C)C(C)(C)C(=O)O

melting point [°C]	SMILES
120 to 122	FC(F)(F)c1ccc2nnc(S)n2c1
119 to 121	COCc1ccsc1C(=O)O
155 to 157	O=C(CCl)NNC(=O)c1cccc(Cl)c1
50 to 52	COc1ccc(N2CCC(N)CC2)cc1
137 to 139	CC(C)(C)c1nc2ccc(N)cc2s1
211 to 213	Sc1nnc(COc2ccc(Cl)cc2)n1Cc1ccccc1
177 to 179	O=C(O)c1cc(F)cc([N+](=O)[O-])c1Br
146 to 148	CCCS(=O)(=O)N1CCC(=NO)CC1
141 to 143	CCOC(=O)c1c(Cl)c2ncc(S(=O)(=O)Cl)cc2n1C
123 to 125	CON(C)S(=O)(=O)c1cc([N+](=O)[O-])ccc1Cl
113 to 115	Cc1ccc2cccc(S(=O)(=O)Cl)c2n1
141 to 143	COc1cc(I)c(Cl)cc1C(=O)O
238 to 240	O=C(O)c1cc(S(=O)(=O)N2CCSCC2)c[nH]1
68 to 70	CCOC(=O)C(C)=NNc1ccc(Br)cc1CC
196 to 198	Nc1cc(Cl)ncn1
155 to 157	Nc1cc(-c2cccs2)nn1CCO
97 to 99	CN(C)c1ncncc1N
190 to 192	NS(=O)(=O)c1ccc(S(=O)(=O)N2CCC(C(=O)O)CC2)cc1
51 to 53	CCS(=O)(=O)c1ccc(CN)cc1
95 to 97	CC(C)Oc1ccc(S(N)(=O)=O)c2ccccc12
141 to 143	CC1(c2ccc(OC(F)F)cc2)NC(=O)NC1=O (configuration not stated)
133 to 135	C=CCNc1nnc(S)s1
194 to 196	O=C(CCCl)Nc1ccc(N2CCCC2=O)cc1
196 to 198	Cc1oc(-c2cccs2)nc1C(=O)O
73 to 75	CC(C)NC(=S)N(C)C

SMILES	melting point [°C]
CCC(CC)n1ncc(C(=O)O)c1C	154 to 156
Cc1n[nH]c(C2CNCCO2)n1 (configuration not stated)	104 to 106
